Literature values, collected in article PMC8698377, “In Vitro Hepatic Assessment of Cineole and Its Derivatives in Common Brushtail Possums (Trichosurus vulpecula) and Rodents” (Biology, 2021).
Where two headings read alike, the source gives them in different places.

Tests used:
[1] = test system: CYP3A; design: method as in PMID 12593759; conditions: rats, ketoconazole; cited from earlier work
[2] = test system: CYP3A; design: method as in PMID 12593759; conditions: possums, ketoconazole 5 µM, cited from earlier work

Structure (SMILES): CC(=O)N1CCN(c2ccc(OCC3COC(Cn4ccnc4)(c4ccc(Cl)cc4Cl)O3)cc2)CC1 (stereo not drawn) [Ketoconazole, ketoconazole]
- reduction of the metabolite formation [1]: 85%
- reduction of the formation of 9-hydroxycineole ([2]; cineole concentration 10 µM): 15%
- reduction of the formation of 9-hydroxycineole ([2]; cineole concentration 100 µM): 30%
